Data as given in patent US7732449B2, “Inhibitors of cathepsin S” (IRM LLC, priority 2003, dated 2010).
Like-named read-outs stand apart in the source and are kept apart here.

Experiments:
Type in all cases: biochemical
Cathepsin B = Cathepsin B (Homo sapiens, UniProt P07858); experiment: Cathepsin B inhibition, fluorogenic peptide substrate kinetic assay (selectivity); conditions: ratio of cathepsin B inhibition constant to cathepsin S inhibition constant;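 note: value is the cathepsin B inhibition constant divided by the cathepsin S one, each from kinetic fluorescence readings (ex 380 nm, em 450 nm) of a 10 µM coumarin peptide substrate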
Cathepsin L = Cathepsin L (Homo sapiens, UniProt P07711); experiment: Cathepsin L inhibition, fluorogenic peptide substrate kinetic assay (selectivity); conditions: ratio of cathepsin L inhibition constant to cathepsin S inhibition constant
Cathepsin S = Cathepsin S (Homo sapiens, UniProt P25774); experiment: Cathepsin S inhibition, fluorogenic peptide substrate kinetic assay;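 note: cleavage rate of a coumarin-labelled peptide substrate (50 µM) read as fluorescence increase at Ex 380 nm and Em 450 nm, relative to inhibitor-free control reactions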
Cathepsin K = target: T1, Cathepsin K (Homo sapiens, UniProt P43235); experiment: Cathepsin K inhibition, fluorogenic peptide substrate kinetic assay (selectivity); conditions: ratio of cathepsin K inhibition constant to cathepsin S inhibition constant
T1 sequence (P43235 115-329): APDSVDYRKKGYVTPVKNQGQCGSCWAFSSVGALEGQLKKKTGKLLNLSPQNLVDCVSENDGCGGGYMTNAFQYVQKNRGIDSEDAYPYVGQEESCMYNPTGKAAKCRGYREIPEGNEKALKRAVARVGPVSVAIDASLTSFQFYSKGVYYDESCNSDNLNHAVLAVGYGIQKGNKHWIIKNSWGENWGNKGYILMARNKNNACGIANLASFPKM

[1] = Cathepsin S inhibition constant, pH5.5, 20 minutes preincubation at room temperature, read-out: Ki Cat. S

Cathepsin S, sequence (P25774 115-331, species assumed): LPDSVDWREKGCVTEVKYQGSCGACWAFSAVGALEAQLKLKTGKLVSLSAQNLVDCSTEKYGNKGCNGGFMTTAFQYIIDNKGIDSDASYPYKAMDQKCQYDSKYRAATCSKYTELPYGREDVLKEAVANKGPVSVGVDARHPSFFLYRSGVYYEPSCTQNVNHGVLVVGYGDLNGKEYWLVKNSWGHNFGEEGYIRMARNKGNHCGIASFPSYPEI
Cathepsin L, sequence (P07711 114-333, species assumed): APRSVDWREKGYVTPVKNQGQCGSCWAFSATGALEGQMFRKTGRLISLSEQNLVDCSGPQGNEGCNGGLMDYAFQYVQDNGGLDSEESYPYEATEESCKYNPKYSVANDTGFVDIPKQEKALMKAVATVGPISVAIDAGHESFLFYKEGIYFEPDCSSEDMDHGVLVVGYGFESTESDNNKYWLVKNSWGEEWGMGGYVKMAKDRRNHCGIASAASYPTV

Row | SMILES | Selectivity for Cat. S over Cat. B (Cathepsin B) | Selectivity for Cat. S over Cat. L (Cathepsin L) | Ki (Cathepsin S; [1]) [nM] | Selectivity for Cat. S over Cat. K (Cathepsin K) | Ki (Cathepsin S) [nM]
1 | COc1ccc(NC[C@H](C)NC(=O)[C@H](CC2CCCCC2)NC(=O)N2CCOCC2)cc1 [Example 72, (S,S)-Morpholine-4-carboxylic acid {2-cyclohexyl-1-[2-(4-methoxy-phenylamino)-1-methyl-ethylcarbamoyl]-ethyl}-amide] | ++ (++, >100) | + (+, >10) | < 100 | ++ (++, >100) | 
2 | COc1ccc(NC[C@H](C)NC(=O)[C@H](CC2CCCC2)NC(=O)N2CCOCC2)cc1 [Example 73, Morpholine-4-carboxylic acid {2-cyclopentyl-1-(S)-[2-(4-methoxy-phenylamino)-1-(S)-methyl-ethylcarbamoyl]-ethyl}-amide] | ++ (++, >100) | + (+, >10) | < 100 | + (+, >10) | 
3 | Cc1cc(NC[C@H](C)NC(=O)[C@H](CC2CCCCC2)NC(=O)N2CCOCC2)no1 [Example 77, Morpholine-4-carboxylic acid {2-cyclohexyl-1-(S)-[1-(S)-methyl-2-(5-methyl-isoxazol-3-ylamino)-ethylcarbamoyl]-ethyl}-amide] | ++ (++, >100) | + (+, >10) | 100 to 1000 | + (+, >10) | 

Results, then the molecule that gave them:

Row | Selectivity for Cat. S over Cat. B (Cathepsin B) | Selectivity for Cat. S over Cat. L (Cathepsin L) | Ki (Cathepsin S; [1]) [nM] | Selectivity for Cat. S over Cat. K (Cathepsin K) | Ki (Cathepsin S) [nM] | SMILES
4 | + (+, >10) | + (+, >10) | 1000 to 10000 | + (+, >10) |  | CC(C)[C@@H](CNc1cccc(S(C)(=O)=O)c1)NC(=O)[C@@H](CC(=O)N1CCOCC1)c1ccc(F)cc1 [Example 67, 2-(S)-(4-Fluoro-phenyl)-N-{1-(S)-[(3-methanesulfonyl-phenylamino)-methyl]-2-methyl-propyl}-4-morpholin-4-yl-4-oxo-butyramide]
5 | +++ (+++, >1000) | +++ (+++, >1000) | < 100 | ++ (++, >100) |  | CC(C)[C@@H](CN1CC(C)(C)c2cc(F)ccc21)NC(=O)[C@@H](CC(=O)N1CCOCC1)c1ccc(C(F)(F)F)cc1 [Example 68, N-[1-(S)-(5-Fluoro-3,3-dimethyl-2,3-dihydro-indol-1-ylmethyl)-2-methyl-propyl]-4-morpholin-4-yl-4-oxo-2-(S)-(4-trifluoromethyl-phenyl)-butyramide]
6 | ++ (++, >100) | ++ (++, >100) | 100 to 1000 | + (+, >10) |  | CC1(C)CN(C[C@@H](NC(=O)[C@@H](CC(=O)N2CCOCC2)c2ccc(C(F)(F)F)cc2)C2CC2)c2ccc(F)cc21 [Example 69, N-[1-(S)-Cyclopropyl-2-(5-fluoro-3,3-dimethyl-2,3-dihydro-indol-1-yl)-ethyl]-4-morpholin-4-yl-4-oxo-2-(S)-(4-trifluoromethyl-phenyl)-butyramide]
7 | ++ (++, >100) | ++ (++, >100) |  | ++ (++, >100) | 100 to 1000 | O=C(N[C@H](CNc1ccc(OC(F)(F)F)cc1)C1CC1)[C@@H](CC(=O)N1CCOCC1)c1ccc(C(F)(F)F)cc1 [Example 70, N-[1-(S)-Cyclopropyl-2-(4-trifluoromethoxy-phenylamino)-ethyl]-4-morpholin-4-yl-4-oxo-2-(S)-(4-trifluoromethyl-phenyl)-butyramide]
8 | +++ (+++, >1000) | + (+, >10) | < 100 | +++ (+++, >1000) |  | C[C@@H](CN1CC(C)(C)c2cc(F)ccc21)NC(=O)[C@H](CC1CCCCC1)NC(=O)N1CCOCC1 [Example 80, (S,S)-Morpholine-4-carboxylic acid {2-cyclohexyl-1-[2-(5-fluoro-3,3-dimethyl-2,3-dihydro-indol-1-yl)-1-methyl-ethylcarbamoyl]-ethyl}-amide]
